From US8088920B2, “3-trifluoromethyl-pyrazine-2-carboxylic acid amide derivatives as HDL-cholesterol raising agents” (Hoffmann-La Roche Inc., priority 2008, dated 2012)

test system: THP-1 cells; test: Cholesterol efflux assay; type: cell-based; settings: Homo sapiens; THP-1 cells differentiated to macrophages, [3H]cholesterol loaded, efflux induced by 10 μg/ml Apolipoprotein AI, 6 hrs; percent stimulation over DMSO
Description: The ability of compounds of the invention to stimulate cholesterol efflux is determined in replicate cultures of THP-1 cells in 96-well microplates. Cells are plated at an initial density of 150,000 cells/well and differentiated to macrophages with the addition of PMA (100 ng/ml) for 72 hrs in 10% fetal bovine serum, 3 μl/L of b-mercaptoethanol, RPMI-1640 medium. Cells are washed once with RPMI-1640 and loaded with RPMI-1640 medium containing 2% FCS, 50 μg/ml acetylated LDL, and 10 μCi/ml [^3H]cholesterol for 48 hours at 37° C. After loading the cells are washed once with RPMI-1640 and incubated with the compound of interest from DMSO solutions for an additional 24 hrs in RPMI-1640 medium containing 1 mg/ml fatty acid free-bovine serum albumin (BSA). Upon incubation cells are washed once, and cholesterol efflux is induced by the addition of 10 μg/ml Apolipoprotein AI in RPMI-1640 containing 1 mg/ml BSA and in the presence of the compound for an additional 6 hrs. Following incubation radioactivity is determined in the supernatants and cholesterol efflux is expressed as the percent stimulation over replicate cultures treated only with DMSO. Sigmoidal curves were fitted using the XLfit3 program (ID Business Solutions Ltd. UK) and EC50 values were determined.

Row | Compound | EC50
1 | CC(O)(CNC(=O)c1nc(-c2ccc(Cl)cc2)c(OCC(F)(F)F)nc1C(F)(F)F)C1CC1 (stereo not drawn) [Example 2, 6-(4-chloro-phenyl)-5-(2,2,2-trifluoro-ethoxy)-3-trifluoromethyl-pyrazine-2-carboxylic acid (2-cyclopropyl-2-hydroxy-propyl)-amide] | 570 nM
2 | CC(O)(CNC(=O)c1nc(-c2ccc(Cl)cc2)c(OCC2CC2)nc1C(F)(F)F)C1CC1 (stereo not drawn) [Example 3, 6-(4-chloro-phenyl)-5-cyclopropylmethoxy-3-trifluoromethyl-pyrazine-2-carboxylic acid (2-cyclopropyl-2-hydroxy-propyl)-amide] | 720 nM
3 | O=C(N[C@@H]1CCCC[C@H]1O)c1nc(-c2ccc(Cl)cc2)c(OCC2CC2)nc1C(F)(F)F [Example 1, 6-(4-chloro-phenyl)-5-cyclopropylmethoxy-3-trifluoromethyl-pyrazine-2-carboxylic acid ((1R,2R)-2-hydroxy-cyclohexyl)-amide] | 610 nM
